Data reported in patent US20230131339A1, “EPI-X4 BASED PEPTIDES AND DERIVATIVES THEREOF” (Universitaet Ulm, priority 2020, published 2023).
Where a SMILES comes first, the peptide text is derived from it. Where no end group is shown, it is not given here. [ ]: non-standard residue; d: D form. The star is where a group is joined. DOTA = O=C(O)CN1CCN(CC(=O)O)CCN(CC(=O)*)CCN(CC(=O)O)CC1; Palmitoyl = CCCCCCCCCCCCCCCC(=O)*

How the values were obtained:
[1] = Functional stability assay in human plasma
Method: Fourth, the stability of peptides in human plasma and whole human blood was tested (FIG. 4). The functional stability of EPI-X4 (SEQ ID NO.: 1) derivatives was screened using a CXCR4 antibody-based screening approach. Peptides were diluted in full human plasma or blood (>99%) and the functional activity was then measured after either 2 hours or 8 hours and compared to a sample that was not incubated in plasma or blood.
In this test, the peptides were incubated in human plasma for a certain time period.
Stability assay. Whole blood was collected from healthy donors in EDTA tubes and directly used or subsequently centrifuged for 15 min at 2,500×g to obtain plasma. Plasma from 6 donors was pooled and stored in aliquots at −80° C. Compounds were 200-fold diluted in human plasma or whole human blood to reach final concentrations of 20 μM. The t=0 sample was immediately taken and stored at −80° C. Plasma/compound or blood/compound mixture was then transferred to 37° C. and shook at 350 rpm. At given time points samples were taken and stored at −80° C.°. For measuring the functional activity of the plasma/peptide samples, the mixtures were thawed and diluted in ice cold PBS. 12G5-APC antibody competition was then performed as described before. For blood/peptide functional stability, samples were thawed and centrifuged at 14,000 rpm to remove cells and debris. The supernatant was then diluted in PBS and 12G5-antibody competition assay was performed. After the 2 hours incubation, the cells were washed and 50 μl of 1-step-Fix/Lyse solution (Thermo Fisher #00-5333-54) was added for 15 minutes at room temperature. Afterwards cells were washed again and analyzed for bound antibody.

[2] = tested on: CXCR4-tropic X4-HIV-1 (NL4-3); assay type: cell-based
CXCR4 = target: T1, CXCR4 (Homo sapiens, UniProt P61073); test: Antibody competition assay (12G5-assay) on SupT1 cells; assay type: binding
T1 construct: endogenous in cells; host or cells: SupT1 cells
Method: Second, the activity was tested by an antibody competition assay (FIG. 2). Values determined by the competition assay represent the potency of a compound to compete with an antibody that specifically binds to the binding pocket (ECL2) of CXCR4. […] To the right of the diagrams, an assignment of the curves to the tested peptides is explained. […] Three independent experiments were carried out for each peptide in each assay. The error bars refer to the standard deviation.
Antibody competition assay. Competition of compounds with antibody binding was performed on SupT1 cells. For that cells were washed in PBS containing 1% FCS and 50,000 cells were then seeded per well in a 96 V-well plate. Buffer was removed and plates were precooled at 4° C. Compounds were diluted in PBS and antibody (clone 12G5, APC labelled) was diluted in PBS containing 1% FCS. The antibody was used at a concentration closed to its determined Kd. 15 μl compounds were then added to the cells and 15 μl antibody immediately afterwards. Plates were incubated at 4° C. in the dark for 2 hours. Afterwards cells were washed twice with PBS containing 1% FCS and fixed with 2% PFA. Antibody binding was analyzed by flow cytometry (FACS CytoFLEX; Beckman Coulter®).

[3] = tested on: CXCL12-induced AKT signaling; test: ERK/AKT signaling assay in SupT1 cells: AKT phosphorylation; assay type: cell-based; settings: 10 μM
Method: Third, the activity of the claimed EPI-X4 derivatives was tested by the effect on CXCL12/CXCR4-mediated ERK (Extracellular-signal Regulated Kinases) and AKT (a serine/threonine-protein kinase) signaling (FIG. 3). In that assay CXCR4 expressing cells are stimulated with the CXCR4 chemokine-ligand CXCL12, which subsequently leads to phosphorylation of ERK and AKT. Preincubation of cells with CXCR4-antagonists blocks those pathways. […] Two or three independent experiments were carried out in triplicates for each peptide in each assay. The error bars refer to the standard deviation.
ERK/AKT signaling assay. CXCL12 induced ERK and AKT phosphorylation was determined in SupT1 cells. For this, 100,000 cells were seeded per well in a 96-V well plate in 100 μl medium supplemented with 1% FCS. Cells were incubated for 2 hours at 37° C. before 5 μl of compounds were added. After 15 min incubation at 37° C. cells were stimulated by adding 5 μl CXCL12 diluted in PBS to reach a final concentration of 100 ng/ml. Cells were further incubated for 2 min before the reaction was stopped by adding 20 μl of 10% PFA. Cells were fixed for 15 min at 4° C. before PFA was removed and cells permeabilized by adding 100 μl ice cold methanol. After 15 min at 4° C. the methanol was removed, cells were washed and 30 μl primary antibody was added (phospho-p44/42 MAPK (Erk1) (Tyr204)/(Erk2) (Tyr187) (D1H6G) mouse mAb #5726; phosphor-Akt (Ser473) (193H12) rabbit mAb #4058 Cell Signaling) for 1 hour at 4° C. After the antibody was removed and cells were washed secondary antibody was added for 30 min. Cells were washed afterwards and subsequently analyzed by flow cytometry.

T1 sequence (P61073 whole entry): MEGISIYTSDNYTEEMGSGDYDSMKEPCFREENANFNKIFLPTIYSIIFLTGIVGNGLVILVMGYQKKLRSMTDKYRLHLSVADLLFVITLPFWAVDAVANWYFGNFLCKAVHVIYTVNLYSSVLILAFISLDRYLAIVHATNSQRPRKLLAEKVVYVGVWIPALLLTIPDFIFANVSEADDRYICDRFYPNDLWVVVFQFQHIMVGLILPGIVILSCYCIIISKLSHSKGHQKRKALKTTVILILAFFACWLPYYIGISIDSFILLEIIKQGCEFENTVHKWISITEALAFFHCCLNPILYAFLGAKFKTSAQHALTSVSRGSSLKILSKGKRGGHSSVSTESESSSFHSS

Molecule	anti-HIV-1 activity (in words) [2]	antibody competition / binding to CXCR4 (in words) (CXCR4)	also measured
CC[C@@H](C)[C@@H](N)C(=O)N[C@@H](CC(C)C)C(=O)N[C@@H](CCCNC(=N)N)C(=O)N[C@@H](Cc1c[nH]c2ccccc12)C(=O)N[C@@H](CO)C(=O)N[C@@H](CCCNC(=N)N)C(=O)N[C@@H](CCCCN)C(=O)N[C@@H](CC(C)C)C(=O)N1CCC[C@H]1C(N)=O [JM #174] (H-[dI]LRWSRKLP-NH2)	–	–	remaining (relative) activity after 8 hours of plasma incubation ([1]; human plasma, 8 hours): 100%
JM #207: JM #122 with DOTA conjugated via an additional lysine coupled to the C-terminal amino acid of the peptide (ILRWSRKLPSVSK(DOTA))	suppressed HIV-1 infection with similar potency as the non-conjugated peptide	displaced the antibody as efficiently as the non-conjugated JM #21	–
JM #206: JM #21 with DOTA conjugated via an additional lysine coupled to the C-terminal amino acid of the peptide (ILRWSRKLPCVSK(DOTA))	suppressed HIV-1 infection with similar potency as the non-conjugated peptide	displaced the antibody as efficiently as the non-conjugated JM #21	–
c1cc(CN2CCCNCCNCCCNCC2)ccc1CN1CCCNCCNCCCNCC1 [AMD3100, reference compound]	–	–	reduction of CXCL12-induced AKT signaling [3]: about 60%
SC066: PEG-coupled JM #21, two peptide copies on one end of PEG, average molecular mass 20 kDa (ILRWSRKLPCVS; also: PEG-coupled, two peptide copies on one end, average 20 kDa)	comparable to the state of the art CXCR4-antagonist AMD3100 and JM #21	even higher activity than JM #21	–
CCCCCCCCCCCCCCCC(=O)NCCCC[C@H](NC(=O)[C@H](CCCCN)NC(=O)[C@H](CO)NC(=O)[C@H](Cc1c[nH]c2ccccc12)NC(=O)[C@H](CCCNC(=N)N)NC(=O)[C@@H](NC(=O)[C@@H](N)[C@@H](C)CC)C(C)C)C(=O)N[C@H](C(=O)N1CCC[C@H]1C(N)=O)C(C)C [JM #167, IVRWSKK(Pal)VP-NH2] (H-IVRWSKK(Palmitoyl)VP-NH2)	–	–	IC50 (CXCR4): 2 nM
CSCC[C@@H](N)C(=O)N[C@@H](CC(C)C)C(=O)N[C@@H](CCCNC(=N)N)C(=O)N[C@@H](Cc1c[nH]c2ccccc12)C(=O)N[C@@H](CO)C(=O)N[C@@H](CCCNC(=N)N)C(=O)N[C@@H](CCCCN)C(=O)N[C@@H](CCSC)C(=O)N1CCC[C@H]1C(=O)N[C@@H](CS)C(=O)N[C@H](C(=O)N[C@@H](CO)C(=O)O)C(C)C [JM #28] (H-[dM]LRWSRKMPCVS-OH; C-terminus assumed)	–	–	IC50 ([2]; CXCR4-tropic X4- (NL4-3)): 246 nM; remaining (relative) activity after 2 hours of plasma incubation ([1]; human plasma): 96%; remaining (relative) activity after 8 hours of plasma incubation ([1]; human plasma, 8 hours): 77%
SC024: PEG-coupled peptide JM #21, average molecular mass 20 kDa (ILRWSRKLPCVS; also: coupled to PEG 20 kDa, site not given here)	comparable to the state of the art CXCR4-antagonist AMD3100 and JM #21	–	remaining (relative) activity after 8 hours of plasma incubation ([1]; human, plasma, 8 h): 30%
CCCCCCCCCCCCCCCC(=O)NCCCC[C@H](NC(=O)[C@H](CCCNC(=N)N)NC(=O)[C@H](CO)NC(=O)[C@H](Cc1c[nH]c2ccccc12)NC(=O)[C@H](CCCNC(=N)N)NC(=O)[C@H](CCSC)NC(=O)[C@H](N)CC(C)C)C(=O)N[C@@H](CCSC)C(=O)N1CCC[C@H]1C(N)=O [JM #178, d-LMRWSRK(Pal)MP-NH2] (H-[dL]MRWSRK(Palmitoyl)MP-NH2; N-terminus assumed)	strongly increased anti-HIV-1 activity	–	IC50 (CXCR4): 2 nM
SC037: PVP-coupled peptide JM #21, average molecular mass 20 kDa (ILRWSRKLPCVS; also: PVP-coupled, average 20 kDa)	comparable activity as JM #21	comparable activity as JM #21	–
SC042: PVA-coupled peptide JM #21, average molecular mass 20 kDa (ILRWSRKLPCVS; also: PVA-coupled, average 20 kDa)	comparable activity as JM #21	comparable activity as JM #21	–
SC029: PEG 20 kDa telechelic peptide conjugate, JM #21 copies coupled to different ends of the polymer (ILRWSRKLPCVS; also: PEG 20 kDa conjugate, peptide copies at both polymer ends, site not given here)	comparable to the state of the art CXCR4-antagonist AMD3100 and JM #21	–	remaining (relative) activity after 8 hours of plasma incubation ([1]; human, plasma, 8 h): 38%
SC033: PEG-coupled peptide JM #21, average molecular mass 5 kDa (ILRWSRKLPCVS; also: PEG-coupled, average 5 kDa, attachment site not given here)	comparable to the state of the art CXCR4-antagonist AMD3100 and JM #21	–	remaining (relative) activity after 8 hours of plasma incubation ([1]; human, plasma, 8 h): 72%
CC(C)C[C@H](NC(=O)[C@@H](NC(=O)[C@@H]1CCCN1C(=O)[C@@H](NC(=O)[C@H](CO)NC(=O)[C@@H](NC(=O)[C@H](CCC(N)=O)NC(=O)[C@@H]1CCCN1C(=O)[C@@H](NC(=O)[C@H](CCCCN)NC(=O)[C@H](CCCCN)NC(=O)[C@@H](NC(=O)[C@H](Cc1ccc(O)cc1)NC(=O)[C@H](CCCNC(=N)N)NC(=O)[C@@H](NC(=O)[C@@H](N)CC(C)C)C(C)C)[C@@H](C)O)C(C)C)C(C)C)[C@@H](C)O)[C@@H](C)O)C(=O)O [EPI-X4] (H-LVRYTKKVPQVSTPTL-OH; N-terminus and C-terminus assumed)	–	–	reduction of CXCL12-induced AKT signaling [3]: about 40%; half-life at 20 μM ([1]; human, plasma): 17 min
CSCC[C@H](NC(=O)[C@H](N)CC(C)C)C(=O)N[C@@H](CCCNC(=N)N)C(=O)N[C@@H](Cc1c[nH]c2ccccc12)C(=O)N[C@@H](CO)C(=O)N[C@@H](CCCNC(=N)N)C(=O)N[C@@H](CCCCN)C(=O)N[C@@H](CCSC)C(=O)N1CCC[C@H]1C(=O)N[C@@H](CS)C(=O)N[C@H](C(=O)N[C@@H](CO)C(=O)O)C(C)C [JM #36] (H-[dL]MRWSRKMPCVS-OH; C-terminus assumed)	–	–	remaining (relative) activity after 2 hours of plasma incubation ([1]; human plasma): 85%; remaining (relative) activity after 8 hours of plasma incubation ([1]; human plasma, 8 hours): 81%
SC001: DSPE-coupled derivative (via PEG), one peptide copy (ILRWSRKLPCVS; also: DSPE conjugate via PEG, one peptide copy, site not given here)	higher activity than cholesterol-coupled SC043	higher activity than cholesterol-coupled SC043	–
